Here are results for 25 compounds from ChEMBL document CHEMBL1149679 (Bioorg Med Chem Lett, 2007).

Assay [1] addresses T1, Polyunsaturated fatty acid lipoxygenase ALOX15 (Oryctolagus cuniculus, UniProt P12530).
T1 sequence (P12530 whole entry): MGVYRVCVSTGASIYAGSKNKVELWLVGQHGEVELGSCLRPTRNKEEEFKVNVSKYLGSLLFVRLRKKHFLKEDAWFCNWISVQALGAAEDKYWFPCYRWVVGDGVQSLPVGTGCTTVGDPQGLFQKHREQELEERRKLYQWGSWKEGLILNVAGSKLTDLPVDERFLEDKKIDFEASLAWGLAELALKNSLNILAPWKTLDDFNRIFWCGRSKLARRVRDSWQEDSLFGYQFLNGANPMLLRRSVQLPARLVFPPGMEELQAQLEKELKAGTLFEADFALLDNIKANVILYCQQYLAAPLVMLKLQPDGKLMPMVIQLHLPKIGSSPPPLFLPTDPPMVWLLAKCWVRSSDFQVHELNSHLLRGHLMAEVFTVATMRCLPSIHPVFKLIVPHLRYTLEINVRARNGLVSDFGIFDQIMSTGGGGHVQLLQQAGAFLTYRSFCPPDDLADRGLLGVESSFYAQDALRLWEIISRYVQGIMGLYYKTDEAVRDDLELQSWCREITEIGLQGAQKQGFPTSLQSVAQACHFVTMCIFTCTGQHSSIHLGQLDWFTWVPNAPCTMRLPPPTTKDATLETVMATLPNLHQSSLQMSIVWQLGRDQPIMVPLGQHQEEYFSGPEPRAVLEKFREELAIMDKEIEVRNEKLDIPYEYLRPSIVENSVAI
Briefly: Inhibition of rabbit 15-lipoxygenase in presence of linoleic acid.

For assay [2], the target named is T1, Polyunsaturated fatty acid lipoxygenase ALOX15. Put plainly: Inhibition of rabbit 15-lipoxygenase in presence of arachidonic acid.

For `CCCCCc1ccc(S(=O)(=O)NCCCc2nc(-c3ccccc3)[nH]c2-c2ccc(OC)cc2)cc1`, the results for the IC50 in assay [1] and in assay [2] were 0.14 µM and 0.914 µM, respectively. Regarding `CCCCCc1ccc(S(=O)(=O)NCCc2nc(-c3cccc([N+](=O)[O-])c3)[nH]c2-c2ccc(OC)cc2)cc1`, the IC50 (in general, the point on the concentration scale where inhibition reaches its midpoint) in assay [1] came to 0.099 µM; in assay [2], 1.1 µM. For `CCCCCc1ccc(S(=O)(=O)NCCCc2nc(-c3cccs3)[nH]c2-c2ccc(OC)cc2)cc1` the same measures were 0.053 µM and 0.396 µM.

Regarding `CCCCCc1ccc(S(=O)(=O)NCCc2nc(-c3cnccn3)[nH]c2-c2ccc(OC)cc2)cc1`, in assay [1], the IC50 turned out to be 2.81 µM. Turning to `CCCCCc1ccc(S(=O)(=O)NCCc2[nH]cnc2-c2ccc(OC)cc2)cc1`, the IC50 in assay [1] was greater than 10 µM. Turning to `CCCCCc1ccc(S(=O)(=O)NCCc2nc(-c3ccncc3)[nH]c2-c2ccc(OC)cc2)cc1`, the IC50 worked out at 0.087 µM in assay [1] and 3.21 µM in assay [2]. As to `COc1ccc(-c2[nH]c(-c3ccccc3)nc2CCNS(=O)(=O)N(C)[C@H]2CCN(Cc3ccccc3)C2)cc1`, the IC50 worked out at 0.08 µM in assay [1] and 0.0822 µM in assay [2]. Turning to `CCN([C@@H]1CCN(C(C)(C)c2ccccc2)C1)S(=O)(=O)NCCc1nc(-c2cccs2)[nH]c1-c1ccc(OC)cc1`, the IC50 was 0.01 µM in assay [1] and 0.132 µM in assay [2]. Take `COc1ccc(-c2[nH]c(-c3ccccc3)nc2CCNS(=O)(=O)N2CCN(c3ccc(Cl)c(Cl)c3)CC2)cc1`: the IC50 in assay [1] worked out at 0.055 µM; in assay [2], 0.378 µM. For the compound `CCCCCc1ccc(S(=O)(=O)NCCc2nc(-c3ccccn3)[nH]c2-c2ccc(OC)cc2)cc1`, the IC50 in assay [1] amounted to 0.97 µM; in assay [2] it was 5.32 µM. Regarding `COc1ccc(-c2[nH]c(-c3cccs3)nc2CCNS(=O)(=O)N2CCN(c3ccccc3Cl)CC2)cc1`, the IC50 was determined as 0.045 µM in assay [1] and 0.132 µM in assay [2]. Take `CCCCCc1ccc(S(=O)(=O)NCCc2nc(-c3ccc(OC)cc3)[nH]c2-c2ccc(OC)cc2)cc1`: the IC50 in assay [1] is greater than 10 µM. For the compound `CCCCCc1ccc(S(=O)(=O)NCCc2nc(-c3ccc(C)cc3)[nH]c2-c2ccc(OC)cc2)cc1`, in assay [1], the IC50 was greater than 3 µM. Take `CCCCCc1ccc(S(=O)(=O)NCCc2nc(-c3ccccc3)[nH]c2-c2ccc(C(F)(F)F)cc2)cc1`: the figures for the IC50 in assay [1] and in assay [2] were 0.072 µM and 0.372 µM, respectively. For `CCCCCc1ccc(S(=O)(=O)NCCc2nc(C(C)(C)C)[nH]c2-c2ccc(OC)cc2)cc1`, the IC50 in assay [1] is 1.92 µM; in assay [2] it was greater than 10 µM. With `COc1ccc(-c2[nH]c(-c3ccccc3)nc2CCNS(=O)(=O)N[C@H]2CCN(Cc3ccccc3)C2)cc1`, the IC50 is 0.272 µM in assay [1] and 2.41 µM in assay [2].

`CCCCCc1ccc(S(=O)(=O)NCCc2nc(-c3cccnc3)[nH]c2-c2ccc(OC)cc2)cc1`: the IC50 in assay [1] worked out at 0.56 µM.

For the compound `CCCCCc1ccc(S(=O)(=O)NCCc2nc(-c3ccccc3)[nH]c2-c2cccc(OC)c2)cc1`, the IC50 stood at 0.082 µM in assay [1] and 0.531 µM in assay [2]. With `CCCCCc1ccc(S(=O)(=O)NCCc2nc(C3CC3)[nH]c2-c2ccc(OC)cc2)cc1`, the IC50 in assay [1] and in assay [2] was greater than 10 µM throughout.

Regarding `COc1ccc(-c2[nH]c(-c3ccccc3)nc2CCNS(=O)(=O)N2CCN(c3ccccc3)CC2)cc1`, the IC50 in assay [1] is 0.212 µM; in assay [2], 3.45 µM.

For the compound `CCCCCc1ccc(S(=O)(=O)NCCc2nc(-c3ccc(Cl)cc3)[nH]c2-c2ccc(OC)cc2)cc1`, the values for the IC50 in assay [1] and in assay [2] were 0.021 µM and 1.1 µM, respectively. As to `COc1ccc(-c2[nH]c(-c3ccccc3)nc2CCNS(=O)(=O)c2ccc(C)cc2)cc1`, the values for the IC50 in assay [1] and in assay [2] were 0.364 µM and 2.8 µM, respectively. Turning to `COc1ccc(-c2[nH]c(-c3cccs3)nc2CCNS(=O)(=O)N(C)[C@@H]2CCN(Cc3ccccc3)C2)cc1`, the IC50 stood at 0.038 µM in assay [1] and 0.375 µM in assay [2]. Turning to `CCCCCc1ccc(S(=O)(=O)NCCc2nc(C)[nH]c2-c2ccc(OC)cc2)cc1`, the IC50 in assay [1] is greater than 10 µM. Regarding `CCCCCc1ccc(S(=O)(=O)NCCc2nc(-c3csc(C)n3)[nH]c2-c2ccc(OC)cc2)cc1`, in assay [1], the IC50 came to 0.72 µM.
